Experimental data taken from ChEMBL document CHEMBL4257468, “Synthesis and biological evaluation of rapamycin-derived, next generation small molecules” (Medchemcomm, 2018).

How the values were obtained:
[1] = biological target: T1, Peptidyl-prolyl cis-trans isomerase FKBP1A (Homo sapiens, UniProt P62942); test: Inhibition of recombinant human FKBP12 expressed in Escherichia coli using succinyl-Ala-Phe-Pro-Phe-4-nitroanilide as substrate measured after 5 to 10 mins by spectrophotometric method
[2] = test system: Saccharomyces cerevisiae; test: Inhibition of FKBP12 in yeast assessed as reduction in cell proliferation
[3] = Apparent terminal half life in Sprague-Dawley rat at 2.5 mg/kg, iv administered as bolus dose by mass spectrometric analysis; assay type: ADME, organism-based; conditions: in vivo, read-out: betat1/2(app) (converted)
[4] = biological target: T1, Peptidyl-prolyl cis-trans isomerase FKBP1A; test: Inhibition of [3H]-FK506 binding to recombinant human His6-tagged FKBP12 pretreated for 10 mins followed by [3H]-FK506 addition and measured after 1.5 hrs by microbeta scintillation counting method
[5] = Half life in human administered as oral dose; assay type: ADME, organism-based; conditions: in vivo

T1 sequence (P62942 whole entry): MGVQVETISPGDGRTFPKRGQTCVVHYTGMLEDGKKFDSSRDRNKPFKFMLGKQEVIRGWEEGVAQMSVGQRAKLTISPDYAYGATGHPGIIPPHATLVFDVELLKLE

Ki [1] | IC12 [2] | half-life [3] | IC50 [4] | half-life [5] | SMILES
7 nM | 20 nM | – | – | – | CO[C@@H]1C[C@H](C[C@@H](C)[C@@H]2CC(=O)[C@H](C)/C=C(\C)[C@@H](O)[C@@H](OC)C(=O)[C@H](C)C[C@H](C)/C=C/C=C/C=C(\C)[C@@H](OCc3cccc([N+](=O)[O-])c3)C[C@@H]3CC[C@@H](C)[C@@](O)(O3)C(=O)C(=O)N3CCCC[C@H]3C(=O)O2)CC[C@H]1O
– | 4 nM | – | – | – | CO[C@@H]1C[C@H](C[C@@H](C)[C@@H]2CC(=O)[C@H](C)/C=C(\C)[C@@H](O)[C@@H](OC)C(=O)[C@H](C)C[C@H](C)/C=C/C=C/C=C(\C)[C@@H](SC)C[C@@H]3CC[C@@H](C)[C@@](O)(O3)C(=O)C(=O)N3CCCC[C@H]3C(=O)O2)CC[C@H]1O
29 nM | 210 nM | – | – | – | CO[C@@H]1C[C@H](C[C@@H](C)[C@@H]2CC(=O)[C@H](C)/C=C(\C)[C@@H](O)[C@@H](OC)C(=O)[C@H](C)C[C@H](C)/C=C/C=C/C=C(\C)C(=O)C[C@@H]3CC[C@@H](C)[C@@](O)(O3)C(=O)C(=O)N3CCCC[C@H]3C(=O)O2)CC[C@H]1O
9 nM | 225 nM | – | – | – | COc1ccc([C@H]2C[C@@H]3CC[C@@H](C)[C@@](O)(O3)C(=O)C(=O)N3CCCC[C@H]3C(=O)O[C@H]([C@H](C)C[C@@H]3CC[C@@H](O)[C@H](OC)C3)CC(=O)[C@H](C)/C=C(\C)[C@@H](O)[C@@H](OC)C(=O)[C@H](C)C[C@H](C)/C=C/C=C/C=C/2C)c(OC)c1
4.5 nM | 170 nM | – | – | – | COC(=O)N[C@H]1C[C@@H]2CC[C@@H](C)[C@@](O)(O2)C(=O)C(=O)N2CCCC[C@H]2C(=O)O[C@H]([C@H](C)C[C@@H]2CC[C@@H](O)[C@H](OC)C2)CC(=O)[C@H](C)/C=C(\C)[C@@H](O)[C@@H](OC)C(=O)[C@H](C)C[C@H](C)/C=C/C=C/C=C/1C
– | – | 9.4 h | – | – | CO[C@H]1C[C@@H]2CC[C@@H](C)[C@@](O)(O2)C(=O)C(=O)N2CCCC[C@H]2C(=O)O[C@H]([C@H](C)C[C@@H]2CC[C@H](n3cnnn3)[C@H](OC)C2)CC(=O)[C@H](C)/C=C(\C)[C@@H](O)[C@@H](OC)C(=O)[C@H](C)C[C@H](C)/C=C/C=C/C=C/1C [ZOTAROLIMUS]
7 nM | > 1000 nM | – | – | – | COc1cc(OC)c([C@@H]2C[C@@H]3CC[C@@H](C)[C@@](O)(O3)C(=O)C(=O)N3CCCC[C@H]3C(=O)O[C@H]([C@H](C)C[C@@H]3CC[C@@H](O)[C@H](OC)C3)CC(=O)[C@H](C)/C=C(\C)[C@@H](O)[C@@H](OC)C(=O)[C@H](C)C[C@H](C)/C=C/C=C/C=C/2C)c(OC)c1
3.7 nM | 220 nM | – | – | – | COC(=O)N[C@@H]1C[C@@H]2CC[C@@H](C)[C@@](O)(O2)C(=O)C(=O)N2CCCC[C@H]2C(=O)O[C@H]([C@H](C)C[C@@H]2CC[C@@H](O)[C@H](OC)C2)CC(=O)[C@H](C)/C=C(\C)[C@@H](O)[C@@H](OC)C(=O)[C@H](C)C[C@H](C)/C=C/C=C/C=C/1C
5 nM | 6 nM | – | – | – | CO[C@@H]1C[C@H](C[C@@H](C)[C@@H]2CC(=O)[C@H](C)/C=C(\C)[C@@H](O)[C@@H](OC)C(=O)[C@H](C)C[C@H](C)/C=C/C=C/C=C(\C)[C@@H](OCc3ccccc3)C[C@@H]3CC[C@@H](C)[C@@](O)(O3)C(=O)C(=O)N3CCCC[C@H]3C(=O)O2)CC[C@H]1O
– | – | – | 53.6 nM | – | CO[C@H]1C[C@@H]2CC[C@@H](C)[C@@](O)(O2)C(=O)C(=O)N2CCSC[C@H]2C(=O)O[C@H]([C@H](C)C[C@@H]2CC[C@@H](O)[C@H](OC)C2)CC(=O)[C@H](C)/C=C(\C)[C@@H](O)[C@@H](OC)C(=O)[C@H](C)C[C@H](C)/C=C/C=C/C=C/1C
– | 8 nM | – | – | – | CO[C@@H]1C[C@H](C[C@@H](C)[C@@H]2CC(=O)[C@H](C)/C=C(\C)[C@@H](O)[C@@H](OC)C(=O)[C@H](C)C[C@H](C)/C=C/C=C/C=C(\C)CC[C@@H]3CC[C@@H](C)[C@@](O)(O3)C(=O)C(=O)N3CCCC[C@H]3C(=O)O2)CC[C@H]1O
– | 4 nM | – | – | – | CO[C@@H]1C[C@H](C[C@@H](C)[C@@H]2CC(=O)[C@H](C)/C=C(\C)[C@@H](O)[C@@H](OC)C(=O)[C@H](C)C[C@H](C)/C=C/C=C/C=C(\C)[C@H](SC)C[C@@H]3CC[C@@H](C)[C@@](O)(O3)C(=O)C(=O)N3CCCC[C@H]3C(=O)O2)CC[C@H]1O
1 nM | 6 nM | – | – | – | CO[C@@H]1C[C@H](C[C@@H](C)[C@@H]2CC(=O)[C@H](C)/C=C(\C)[C@@H](O)[C@@H](OC)C(=O)[C@H](C)C[C@H](C)/C=C/C=C/C=C(\C)[C@@H](OCc3ccc(Cl)cc3)C[C@@H]3CC[C@@H](C)[C@@](O)(O3)C(=O)C(=O)N3CCCC[C@H]3C(=O)O2)CC[C@H]1O
10 nM | 28 nM | – | – | – | CO[C@@H]1C[C@H](C[C@@H](C)[C@@H]2CC(=O)[C@H](C)/C=C(\C)[C@@H](O)[C@@H](OC)C(=O)[C@H](C)C[C@H](C)/C=C/C=C/C=C(\C)[C@@H](c3ccc[nH]3)C[C@@H]3CC[C@@H](C)[C@@](O)(O3)C(=O)C(=O)N3CCCC[C@H]3C(=O)O2)CC[C@H]1O
1.5 nM | 28 nM | – | – | – | CO[C@@H]1C[C@H](C[C@@H](C)[C@@H]2CC(=O)[C@H](C)/C=C(\C)[C@@H](O)[C@@H](OC)C(=O)[C@H](C)C[C@H](C)/C=C/C=C/C=C(\C)[C@H](c3ccc[nH]3)C[C@@H]3CC[C@@H](C)[C@@](O)(O3)C(=O)C(=O)N3CCCC[C@H]3C(=O)O2)CC[C@H]1O
6 nM | 3 nM | – | – | – | CO[C@@H]1C[C@H](C[C@@H](C)[C@@H]2CC(=O)[C@H](C)/C=C(\C)[C@@H](O)[C@@H](OC)C(=O)[C@H](C)C[C@H](C)/C=C/C=C/C=C(\C)[C@H](c3ccco3)C[C@@H]3CC[C@@H](C)[C@@](O)(O3)C(=O)C(=O)N3CCCC[C@H]3C(=O)O2)CC[C@H]1O
3 nM | 12.5 nM | – | – | – | CO[C@@H]1C[C@H](C[C@@H](C)[C@@H]2CC(=O)[C@H](C)/C=C(\C)[C@@H](O)[C@@H](OC)C(=O)[C@H](C)C[C@H](C)/C=C/C=C/C=C(\C)[C@@H](c3ccco3)C[C@@H]3CC[C@@H](C)[C@@](O)(O3)C(=O)C(=O)N3CCCC[C@H]3C(=O)O2)CC[C@H]1O
38 nM | 400 nM | – | – | – | COc1ccc([C@@H]2C[C@@H]3CC[C@@H](C)[C@@](O)(O3)C(=O)C(=O)N3CCCC[C@H]3C(=O)O[C@H]([C@H](C)C[C@@H]3CC[C@@H](O)[C@H](OC)C3)CC(=O)[C@H](C)/C=C(\C)[C@@H](O)[C@@H](OC)C(=O)[C@H](C)C[C@H](C)/C=C/C=C/C=C/2C)c(OC)c1
– | 20 nM | – | – | – | CO[C@@H]1C[C@@H]2CC[C@@H](C)[C@@](O)(O2)C(=O)C(=O)N2CCCC[C@H]2C(=O)O[C@H]([C@H](C)C[C@@H]2CC[C@@H](O)[C@H](OC)C2)CC(=O)[C@H](C)/C=C(\C)[C@@H](O)[C@@H](OC)C(=O)[C@H](C)C[C@H](C)/C=C/C=C/C=C/1C
– | 7 nM | 14 h | – | 62 to 82 h | CO[C@H]1C[C@@H]2CC[C@@H](C)[C@@](O)(O2)C(=O)C(=O)N2CCCC[C@H]2C(=O)O[C@H]([C@H](C)C[C@@H]2CC[C@@H](O)[C@H](OC)C2)CC(=O)[C@H](C)/C=C(\C)[C@@H](O)[C@@H](OC)C(=O)[C@H](C)C[C@H](C)/C=C/C=C/C=C/1C [SIROLIMUS]

SMILES | Ki [1] | IC12 [2] | half-life [3] | IC50 [4] | half-life [5]
CCO[C@H]1C[C@@H]2CC[C@@H](C)[C@@](O)(O2)C(=O)C(=O)N2CCCC[C@H]2C(=O)O[C@H]([C@H](C)C[C@@H]2CC[C@@H](O)[C@H](OC)C2)CC(=O)[C@H](C)/C=C(\C)[C@@H](O)[C@@H](OC)C(=O)[C@H](C)C[C@H](C)/C=C/C=C/C=C/1C | 3.5 nM | 10 nM | – | – | –
